Test results reported in patent publication US20250275968A1, “INHIBITORS OF TAU PROTEINS” (DEUTSCHES ZENTRUM FÜR NEURODEGENERATIVE ERKRANKUNGEN E.V., priority 2022, published 2025).
Where a name gives a salt, the structure may show the parent alone.

Assays:
15N-labeled 2N4R tau = molecular target: T1, 15N-labeled 2N4R tau (Homo sapiens, UniProt P10636); experiment: SOFAST-HMQC NMR binding to monomeric tau; details: for binding to tau (NMR spectroscopy): 18 μM tau, 50 mM sodium phosphate pH 6.8, 16 h at 37° C., spectra at 5° C.
T1 construct: Full-length 2N4R tau was incubated with Osimertinib mesylate
Excerpt: (A) Overlaid spectra of 2N4R tau with (black) and without (grey) a 100-fold molar excess of Osimertinib mesylate.
To obtain residue-specific information about the interaction between Tau and the compounds, ^1H-^15N correlation spectra of 2N4R Tau were monitored over the course of a titration with increasing amounts of compound. The ^1H-^15N SOFAST-HMQC (Reference: Schanda, P., Kupce, E. & Brutscher, B. SOFAST-HMQC experiments for recording two-dimensional heteronuclear correlation spectra of proteins within a few seconds. J. Biomol. NMR 33, 199-211 (2005)) spectra of [U-^15N]-Tau were acquired at 5° C. on a Bruker 800 MHz spectrometer equipped with a triple-resonance cryoprobe. Tau samples (18-25 μM) were prepared in NMR buffer containing 10% (v/v) D2O, and with compound concentrations that corresponded to Tau:compound mole ratios of 1:10 and 1:100. All NMR samples were incubated overnight (˜16 h) at 37° C. prior to spectral acquisition. Tau amide assignments were taken from a previous study (Reference: Mukrasch, M. et al. Structural polymorphism of 441-residue tau at single residue resolution. PLoS Biol. 7, e34 (2009)). However, because previous assignments were obtained using a Tau sample prepared in the presence of reducing agents, some amide resonances belonging to the repeat region of Tau (close to C291 and C322) were not unambiguously transferred to the SOFAST-HMQC spectra acquired under oxidizing conditions. Therefore, to obtain nearly complete backbone assignments in the repeat region, 3D HNCA, 3D HNCOCA, and 3D CBCACONH spectra were recorded for a [U-^13C,^15N]-4R Tau (K18 construct) sample prepared under the same buffer condition. The weighted, normalized chemical shift perturbations (CSP) were calculated as CSP=√[0.5 [(Δδ H)^2+(Δδ N)^2/25]. NMR signal intensity ratios, I/I0 (where I is the peak intensity of Tau amide backbone resonances in the presence of the compounds, and I0 is the peak intensity in the absence of the compounds), were calculated for each titration point.

[1] = system: tau-induced degeneration of Drosophila eyes (GMR-Gal4/WT tau); experiment: Drosophila neurodegeneration model (eye degeneration); format: in vivo
Experimental: Stock solutions of individual compounds were prepared by dissolving 10 mg of the compound in 100 μl of 100% DMSO. Osimertinib, Osimertinib mesylate and AZ7550 mesylate were orally fed to the flies by mixing them with food. The final concentration of each compound, which was used for treating the Drosophila, was derived on the basis of recommended concentrations for human use (reference concentration) based on body weight.
We have used three concentrations for each compound. One was equal to the reference concentration, and two were higher than the reference concentration. Final concentrations of different compounds mixed with fly food are: Osimertinib mesylate, […]; Osimertinib, […]; AZ 7550 mesylate, 10 µM and 20 µM. After hatching, first instar larvae were transferred onto the food containing one of the compounds. Food mixed with drug at required concentration was replaced with fresh food every 48 h.
Light microscopy was performed after mounting the fly heads on the glass slide using a double-sided adhesive tape. Full-eye images were captured with the help of an Infinity Analyze camera attached to an Olympus SZX7 microscope with a halogen light source. Total eye surface area and degenerated eye surface area were marked and calculated with Infinity Analyze software (Lumenera corporation). Percentage of degenerated area was calculated and plotted using GraphPad Prism 8.
After the eclosion, treated and control flies (2-3 days old) were fixed in 1% formaldehyde for two hours, followed by serial dehydration steps of 12 hrs each in 25%, 50%, 75% and 100% ethanol were carried out. Flies were stored in 100% ethanol and dried with CPD before mounting on the stab for imaging. Eye Images were captured at 150× and analyzed using Infinity Analyze software.

tau(244-372, 13818 Da) = molecular target: T2, tau(244-372, 13818 Da) (Homo sapiens, UniProt P10636); experiment: ESI-MS covalent modification of tau; format: binding
T2 construct: comprising residues 244-372 of 2N4R Tau
Experimental: This analysis was performed using the 4R Tau construct (K18 construct, 13818 Da) comprising residues 244-372 of 2N4R Tau. Compounds (330 μM) were incubated with 4R Tau (65 μM) for 16 h at 37° C. in 10 mM ammonium bicarbonate at pH 7.0. The compound/4R Tau mixtures were injected into an LC system (ACQUITY) coupled to a single quadrupole mass detection system (SQ Detector 2, Waters) with diode-array detectors (DAD). The DAD spectrum covers wavelengths of 210-400 nm. Components of the compound-4R Tau mixture were separated using a BioResolve RP mAb column (Waters) with a gradient of 5-95% buffer B (buffer A is 0.1% TFA in water and buffer B is 0.1% TFA in acetonitrile). Covalent modification of 4R Tau corresponded to mass additions of 500 Da (Osimertinib) and 486 Da (AZ7550 or AZ5104).

T1 sequence (P10636 1-441 isoform P10636-8): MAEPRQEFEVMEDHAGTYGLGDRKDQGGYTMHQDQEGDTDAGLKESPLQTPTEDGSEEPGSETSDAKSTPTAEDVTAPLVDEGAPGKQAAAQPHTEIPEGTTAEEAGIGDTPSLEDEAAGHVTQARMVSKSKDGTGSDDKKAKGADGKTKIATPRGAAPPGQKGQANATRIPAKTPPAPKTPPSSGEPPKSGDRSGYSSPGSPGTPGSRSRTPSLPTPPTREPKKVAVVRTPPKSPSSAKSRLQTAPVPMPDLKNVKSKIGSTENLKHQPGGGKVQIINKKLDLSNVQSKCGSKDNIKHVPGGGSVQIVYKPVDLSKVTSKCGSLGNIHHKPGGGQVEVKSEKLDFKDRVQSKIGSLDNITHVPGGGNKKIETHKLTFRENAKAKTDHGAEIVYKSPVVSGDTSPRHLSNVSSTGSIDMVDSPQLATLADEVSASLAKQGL
T2 sequence (P10636 561-689): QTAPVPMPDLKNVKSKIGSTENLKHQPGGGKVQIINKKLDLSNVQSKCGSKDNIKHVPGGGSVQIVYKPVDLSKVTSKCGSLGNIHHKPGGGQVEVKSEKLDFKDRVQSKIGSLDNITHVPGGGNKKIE

Compound | binding to tau (NMR spectroscopy) (15N-labeled 2N4R tau) | tau-induced degeneration of Drosophila eyes (percent degeneration, light microscopy) ([1]; GMR-Gal4/WT tau flies treated in food from larvae stage to adult stage) | signs of eye degeneration in SEM micrographs ([1]; compared to control with GMR-Gal4/WT tau) | covalent modification of cysteines in tau (ESI-MS) (tau(244-372, 13818 Da)) | NMR signal intensity ratio I/I0 (15N-labeled 2N4R tau; 16 h incubation at 37° C.)
C=CC(=O)Nc1cc(Nc2nccc(-c3cn(C)c4ccccc34)n2)c(OC)cc1N(C)CCN(C)C [Osimertinib mesylate, N-[2-(2-Dimethylaminoethylmethylamino)-4-methoxy-5-[[4-(1-methylindol-3-yl)pyrimidin-2-yl]amino]phenyl]prop-2-enamide Mesylate Salt] | reveals binding | rescue tau-induced degeneration of Drosophila eyes |  |  | 
C=CC(=O)Nc1cc(Nc2nccc(-c3cn(C)c4ccccc34)n2)c(OC)cc1N(C)CCN(C)C [Osimertinib, N-[2-(2-Dimethylaminoethylmethylamino)-4-methoxy-5-[[4-(1-methylindol-3-yl)pyrimidin-2-yl]amino]phenyl]prop-2-enamide] |  |  | visibly reduced signs of degeneration | confirms covalent modification of cysteines | 
C=CC(=O)Nc1cc(Nc2nccc(-c3c[nH]c4ccccc34)n2)c(OC)cc1N(C)CCN(C)C [Compound 3, N-[2-[[2-(dimethylamino)ethyl]methylamino]-5-[[4-(1H-indol-3-yl)-2-pyrimidinyl]amino]-4-methoxyphenyl]-2-Propenamide] | reveals binding |  |  | confirms covalent modification of cysteines | above 1
